According to patent US20100021519A1, “Compositions and Methods for Treating or Preventing Diseases of Body Passageways” (priority 2006, published 2010):
Like-named read-outs stand apart in the source and are kept apart here.

How the values were obtained:
[1] = Pilot in situ intra-tracheal infusion of THX-polymer formulation in rats immediately after termination; assay type: in vivo, rat; settings: for THX tissue level, trachea: in situ infusion over 30 mins, 8 mg/kg, 200 μl, tissue harvested after 2 hours
Method: A pilot study of in situ intra-tracheal infusion was performed to estimate tracheal and lung tissue levels after in situ intra-tracheal infusion of THX-polymer formulation.
Method: Two rats (immediately after termination) were intra-tracheally infused over 30 mins with a THX-polymer formulation. The dose was 8 mg/kg and volume was 200 μl. After infusion these were wrapped for 2 hours in a warm heating pad. Tracheo-bronchial and lung tissue were harvested after wiping the lumen area of the tracheo-bronchial lumen with a tissue and spatula (to take off any adsorbed drug) at the end of 2 hours. Samples were frozen at −80 C until processed and analyzed by LC-MS. Sample extraction was conducted at AraVasc Inc. The processed samples were analyzed at Alta Analytical laboratories by LC-MS.

liver and lung cancer = settings: preliminary reports, cited from earlier work
[2] = for THX level, plasma / THX tissue level, lung: rat; for THX level, plasma: intratracheal 3 × 4 mg/kg; for THX tissue level, lung: intratracheal THX-polymer formulation 3 × 4 mg/kg, LC-MS
Method: A screening formulation of thalidomide (THX) and polymer was used for the studies and the rat was chosen a preclinical model.
A pilot pharmacokinetic (PK) study was performed to estimate tracheo-bronchial and lung tissue levels after intra-tracheal application of THX-polymer formulation.
Method: A 10 mg/ml THX-polymer formulation was delivered (to anesthetized rats) at a dose of 4 mg/Kg at a volume of 100 μl dosed 3 times in 4 rats at 30 min intervals. The animals were anesthetized while dosing. […] Blood, tracheo-bronchial and lung tissue was sampled at 20 and 40 min past the third dose. Samples were frozen until processed for LC-MS analysis. […] Only the plasma and lung tissue were analyzed by LC-MS.
Method: A preliminary screening LCMS method was developed for quantitating THX in tissues and plasma. […] The equipment used was a SCIEX PE 3000.
Tissue and Plasma Extraction: The tissue was ground (glass-glass homogenizer) and extracted with 70:30 0.1% formic acid in acetonitrile and 0.1% formic acid in water at a 1:3 ratio of tissue to solvent. Plasma is extracted with the same solvent as the tissue at a 1:2 ratio of plasma to solvent. The supernatant extract was subject to LCMS analysis.

[3] = clinical trials in liver and lung cancer
[4] = rats, intra-tracheal THX-polymer formulation, 12 mg/kg dose (100 μl dosed 3 times)

With `O=C1CCC(N2C(=O)c3ccccc3C2=O)C(=O)N1` (racemic) [THX, 2-(2,6-dioxo-3-piperidinyl)-1H-isoindole-1,3(2H)-dione] the “THX tissue level, trachea” value ([1]; Rat 1) was 211.21 μg/100 mg, the “THX tissue level, trachea” value ([1]; Rat 2) was 290.36 μg/100 mg and the “THX levels in tracheo-bronchial and lung tissue (in words)” value ([1]; rats, in situ intra-tracheal infusion (0.5 hr), 8 mg/kg dose) was “High levels”. For the same compound, the Disease control rates (liver and lung cancer; [3]) was 8%-57%, the Response rates (liver and lung cancer; [3]) was 4%-10% and the “Toxicity in clinical trials (in words)” value (liver and lung cancer) was “associated with systemic toxicities”. For the same compound, the “THX level, plasma” value ([2]; 100 μl, 20 mins post 3rd dose, unit of the table head) was 0.19 ng/mL, the “THX level, plasma” value ([2]; 100 μl, 40 mins post 3rd dose, unit of the table head) was 0.44 ng/mL and the “THX level, plasma” value ([2]; 20 mins post 3rd dose, unit of the text) was 190 ng/mL. The “THX level, plasma” value ([2]; 40 mins post 3rd dose, unit of the text) was 440 ng/mL, the “THX tissue level, lung” value ([2]; 100 μl, 20 mins post 3rd dose) was 21.80 μg/100 mg and the “THX tissue level, lung” value ([2]; 100 μl, 40 mins post 3rd dose) was 16.81 μg/100 mg. The “Distribution/diffusion into the lung tissue and vasculature (in words)” value ([2]; rats, intra-tracheal THX-polymer formulation, 12 mg/kg dose) was “good distribution/diffusion into the lung tissue and vasculature”, the “THX levels in lung tissue (in words)” value [2, 4] was “High levels” and the “THX levels in plasma (in words)” value [2, 4] was “low levels”.
